# ChEMBL document CHEMBL1149623, “Identification of antibacterial and antiviral activities of novel fused 1,2,4-triazine esters” (2007)
# Tests used:
# [1] = system: HEK293; assay: Cytotoxicity against human HEK293 cells at 100 ug/mL after 72 hrs by MTT assay; type: functional
# [2] = system: HEK293; assay: Cytotoxicity against human HEK293 cells at 200 ug/mL after 72 hrs by MTT assay; type: functional
# [3] = Cytotoxicity against monkey GMK cells at 2.5 ug/mL after 72 hrs by MTT assay; type: functional, Chlorocebus aethiops
# [4] = Cytotoxicity against monkey GMK cells at 2.5 ug/mL after 24 hrs by MTT assay; type: functional, Chlorocebus aethiops
# [5] = Cytotoxicity against monkey GMK cells at 100 ug/mL after 24 hrs by MTT assay; type: functional, Chlorocebus aethiops
# [6] = Cytotoxicity against monkey GMK cells at 200 ug/mL after 24 hrs by MTT assay; type: functional, Chlorocebus aethiops
# [7] = system: HEK293; assay: Cytotoxicity against human HEK293 cells at 2.5 ug/mL after 72 hrs by MTT assay; type: functional
# [8] = Cytotoxicity against monkey GMK cells at 2.5 ug/mL after 48 hrs by MTT assay; type: functional, Chlorocebus aethiops
# [9] = Cytotoxicity against monkey GMK cells at 5 ug/mL after 48 hrs by MTT assay; type: functional, Chlorocebus aethiops
# [10] = Cytotoxicity against monkey GMK cells at 10 ug/mL after 48 hrs by MTT assay; type: functional, Chlorocebus aethiops
# [11] = Cytotoxicity against monkey GMK cells at 50 ug/mL after 48 hrs by MTT assay; type: functional, Chlorocebus aethiops
# [12] = Cytotoxicity against monkey GMK cells at 200 ug/mL after 48 hrs by MTT assay; type: functional, Chlorocebus aethiops
# [13] = Cytotoxicity against monkey GMK cells at 5 ug/mL after 72 hrs by MTT assay; type: functional, Chlorocebus aethiops
# [14] = Cytotoxicity against monkey GMK cells at 10 ug/mL after 72 hrs by MTT assay; type: functional, Chlorocebus aethiops
# [15] = Cytotoxicity against monkey GMK cells at 25 ug/mL after 72 hrs by MTT assay; type: functional, Chlorocebus aethiops
# [16] = Cytotoxicity against monkey GMK cells at 50 ug/mL after 72 hrs by MTT assay; type: functional, Chlorocebus aethiops
# [17] = Cytotoxicity against monkey GMK cells at 100 ug/mL after 72 hrs by MTT assay; type: functional, Chlorocebus aethiops
# [18] = Cytotoxicity against monkey GMK cells at 200 ug/mL after 72 hrs by MTT assay; type: functional, Chlorocebus aethiops
# [19] = Cytotoxicity against monkey GMK cells at 2.5 ug/mL after 96 hrs by MTT assay; type: functional, Chlorocebus aethiops
# [20] = Cytotoxicity against monkey GMK cells at 5 ug/mL after 96 hrs by MTT assay; type: functional, Chlorocebus aethiops
# [21] = Cytotoxicity against monkey GMK cells at 25 ug/mL after 96 hrs by MTT assay; type: functional, Chlorocebus aethiops
# [22] = Cytotoxicity against monkey GMK cells at 50 ug/mL after 96 hrs by MTT assay; type: functional, Chlorocebus aethiops
# [23] = Cytotoxicity against monkey GMK cells at 100 ug/mL after 96 hrs by MTT assay; type: functional, Chlorocebus aethiops
# [24] = Cytotoxicity against monkey GMK cells at 200 ug/mL after 96 hrs by MTT assay; type: functional, Chlorocebus aethiops
# [25] = Cytotoxicity against monkey GMK cells at 2.5 ug/mL after 120 hrs by MTT assay; type: functional, Chlorocebus aethiops
# [26] = Cytotoxicity against monkey GMK cells at 10 ug/mL after 120 hrs by MTT assay; type: functional, Chlorocebus aethiops
# [27] = Cytotoxicity against monkey GMK cells at 50 ug/mL after 120 hrs by MTT assay; type: functional, Chlorocebus aethiops
# [28] = Cytotoxicity against monkey GMK cells at 200 ug/mL after 120 hrs by MTT assay; type: functional, Chlorocebus aethiops
# [29] = system: HEK293; assay: Cytotoxicity against human HEK293 cells at 5 ug/mL after 24 hrs by MTT assay; type: functional
# [30] = system: HEK293; assay: Cytotoxicity against human HEK293 cells at 10 ug/mL after 24 hrs by MTT assay; type: functional
# [31] = system: HEK293; assay: Cytotoxicity against human HEK293 cells at 25 ug/mL after 24 hrs by MTT assay; type: functional
# [32] = system: HEK293; assay: Cytotoxicity against human HEK293 cells at 50 ug/mL after 24 hrs by MTT assay; type: functional
# [33] = system: HEK293; assay: Cytotoxicity against human HEK293 cells at 200 ug/mL after 24 hrs by MTT assay; type: functional
# [34] = system: HEK293; assay: Cytotoxicity against human HEK293 cells at 5 ug/mL after 48 hrs by MTT assay; type: functional
# [35] = system: HEK293; assay: Cytotoxicity against human HEK293 cells at 10 ug/mL after 48 hrs by MTT assay; type: functional
# [36] = system: HEK293; assay: Cytotoxicity against human HEK293 cells at 25 ug/mL after 48 hrs by MTT assay; type: functional
# [37] = system: HEK293; assay: Cytotoxicity against human HEK293 cells at 50 ug/mL after 48 hrs by MTT assay; type: functional
# [38] = system: HEK293; assay: Cytotoxicity against human HEK293 cells at 100 ug/mL after 48 hrs by MTT assay; type: functional
# [39] = system: HEK293; assay: Cytotoxicity against human HEK293 cells at 200 ug/mL after 48 hrs by MTT assay; type: functional
# [40] = system: HEK293; assay: Cytotoxicity against human HEK293 cells at 5 ug/mL after 72 hrs by MTT assay; type: functional
# [41] = system: HEK293; assay: Cytotoxicity against human HEK293 cells at 10 ug/mL after 72 hrs by MTT assay; type: functional
# [42] = system: HEK293; assay: Cytotoxicity against human HEK293 cells at 25 ug/mL after 72 hrs by MTT assay; type: functional
# [43] = system: HEK293; assay: Cytotoxicity against human HEK293 cells at 50 ug/mL after 72 hrs by MTT assay; type: functional
# [44] = system: HEK293; assay: Cytotoxicity against human HEK293 cells at 2.5 ug/mL after 96 hrs by MTT assay; type: functional
# [45] = system: HEK293; assay: Cytotoxicity against human HEK293 cells at 5 ug/mL after 96 hrs by MTT assay; type: functional
# [46] = system: HEK293; assay: Cytotoxicity against human HEK293 cells at 10 ug/mL after 96 hrs by MTT assay; type: functional
# [47] = system: HEK293; assay: Cytotoxicity against human HEK293 cells at 50 ug/mL after 96 hrs by MTT assay; type: functional
# [48] = system: HEK293; assay: Cytotoxicity against human HEK293 cells at 100 ug/mL after 96 hrs by MTT assay; type: functional
# [49] = system: HEK293; assay: Cytotoxicity against human HEK293 cells at 5 ug/mL after 120 hrs by MTT assay; type: functional
# [50] = system: HEK293; assay: Cytotoxicity against human HEK293 cells at 25 ug/mL after 120 hrs by MTT assay; type: functional
# [51] = system: HEK293; assay: Cytotoxicity against human HEK293 cells at 200 ug/mL after 120 hrs by MTT assay; type: functional
# [52] = system: Human adenovirus 5; assay: Antiviral activity against Human adenovirus 5 in HEK293 cells assessed as virus titre at 50 ug/mL after 1 hr; type: functional
# [53] = system: Human adenovirus 5; assay: Antiviral activity against Human adenovirus 5 in HEK293 cells assessed as virus titre at 100 ug/mL after 1 hr; type: functional
# [54] = system: Human adenovirus 5; assay: Antiviral activity against Human adenovirus 5 in HEK293 cells assessed as virus titre at 200 ug/mL after 1 hr; type: functional
# [55] = system: Echovirus E9; assay: Antiviral activity against Human echovirus 9 in GMK cells assessed as virus titre at 50 ug/mL after 1 hr; type: functional
# [56] = system: Echovirus E9; assay: Antiviral activity against Human echovirus 9 in GMK cells assessed as virus titre at 100 ug/mL after 1 hr; type: functional
# [57] = system: Echovirus E9; assay: Antiviral activity against Human echovirus 9 in GMK cells assessed as virus titre at 200 ug/mL after 1 hr; type: functional
smiles,measurement,setting,value
COC(=O)CC1NN=C2N(CCN2c2cccc(Cl)c2)C1=O (stereo unspecified),Activity,[1],55%
same,Activity,[2],35%
same,Activity,[3],100%
same,Activity,[4],100%
same,Activity,[5],80%
same,Activity,[6],80%
same,Activity,[7],100%
same,Activity,[8],100%
same,Activity,[9],100%
same,Activity,[10],100%
same,Activity,[11],95%
same,Activity,[12],10%
same,Activity,[13],100%
same,Activity,[14],100%
same,Activity,[15],95%
same,Activity,[16],95%
same,Activity,[17],20%
same,Activity,[18],20%
same,Activity,[19],100%
same,Activity,[20],100%
same,Activity,[21],95%
same,Activity,[22],90%
same,Activity,[23],0%
same,Activity,[24],0%
same,Activity,[25],100%
same,Activity,[26],100%
same,Activity,[27],90%
same,Activity,[28],0%
same,Activity,[29],100%
same,Activity,[30],100%
same,Activity,[31],100%
same,Activity,[32],95%
same,Activity,[33],98%
same,Activity,[34],100%
same,Activity,[35],100%
same,Activity,[36],100%
same,Activity,[37],95%
same,Activity,[38],50%
same,Activity,[39],40%
same,Activity,[40],100%
same,Activity,[41],100%
same,Activity,[42],98%
same,Activity,[43],95%
same,Activity,[44],100%
same,Activity,[45],100%
same,Activity,[46],100%
same,Activity,[47],90%
same,Activity,[48],50%
same,Activity,[49],100%
same,Activity,[50],95%
same,Activity,[51],30%
same,TCID50,[52],3.5 mL⁻¹
same,TCID50,[53],3.5 mL⁻¹
same,TCID50,[54],3.23 mL⁻¹
same,TCID50,[55],3.33 mL⁻¹
same,TCID50,[56],3 mL⁻¹
same,TCID50,[57],3.33 mL⁻¹
CCOC(=O)CC1NN=C2N(CCN2c2ccc(C)cc2)C1=O (stereo unspecified),Activity,[1],70%
same,Activity,[2],15%
same,Activity,[3],100%
same,Activity,[4],100%
same,Activity,[5],90%
same,Activity,[6],0%
same,Activity,[7],100%
same,Activity,[8],100%
same,Activity,[9],100%
same,Activity,[10],100%
same,Activity,[11],80%
same,Activity,[12],0%
same,Activity,[13],100%
same,Activity,[14],100%
same,Activity,[15],85%
same,Activity,[16],80%
same,Activity,[17],70%
same,Activity,[18],0%
same,Activity,[19],100%
same,Activity,[20],100%
same,Activity,[21],80%
same,Activity,[22],70%
same,Activity,[23],70%
same,Activity,[24],0%
same,Activity,[25],100%
same,Activity,[26],90%
same,Activity,[27],70%
same,Activity,[28],0%
same,Activity,[29],100%
same,Activity,[30],100%
same,Activity,[31],100%
same,Activity,[32],90%
same,Activity,[33],30%
same,Activity,[34],100%
same,Activity,[35],100%
same,Activity,[36],100%
same,Activity,[37],80%
same,Activity,[38],80%
same,Activity,[39],20%
same,Activity,[40],100%
same,Activity,[41],100%
same,Activity,[42],100%
same,Activity,[43],80%
same,Activity,[44],100%
same,Activity,[45],100%
same,Activity,[46],100%
same,Activity,[47],70%
same,Activity,[48],70%
same,Activity,[49],100%
same,Activity,[50],95%
same,Activity,[51],15%
same,TCID50,[52],2.5 mL⁻¹
same,TCID50,[53],2.5 mL⁻¹
same,TCID50,[54],2.5 mL⁻¹
same,TCID50,[55],3.67 mL⁻¹
same,TCID50,[56],3.67 mL⁻¹
same,TCID50,[57],3.67 mL⁻¹
CCOC(=O)CC1NN=C2N(CCN2c2ccc(Cl)cc2)C1=O (stereo unspecified),Activity,[1],70%
same,Activity,[2],25%
same,Activity,[3],100%
same,Activity,[4],100%
same,Activity,[5],100%
same,Activity,[6],100%
same,Activity,[7],100%
same,Activity,[8],100%
same,Activity,[9],100%
same,Activity,[10],100%
same,Activity,[11],100%
same,Activity,[12],100%
same,Activity,[13],100%
same,Activity,[14],100%
same,Activity,[15],100%
same,Activity,[16],100%
same,Activity,[17],100%
same,Activity,[18],100%
same,Activity,[19],100%
same,Activity,[20],100%
same,Activity,[21],100%
same,Activity,[22],100%
same,Activity,[23],100%
same,Activity,[24],95%
same,Activity,[25],100%
same,Activity,[26],100%
same,Activity,[27],100%
same,Activity,[28],95%
same,Activity,[29],100%
same,Activity,[30],100%
same,Activity,[31],100%
same,Activity,[32],100%
same,Activity,[33],50%
same,Activity,[34],100%
same,Activity,[35],100%
same,Activity,[36],100%
same,Activity,[37],100%
same,Activity,[38],90%
same,Activity,[39],30%
same,Activity,[40],100%
same,Activity,[41],100%
same,Activity,[42],100%
same,Activity,[43],100%
same,Activity,[44],100%
same,Activity,[45],100%
same,Activity,[46],100%
same,Activity,[47],100%
same,Activity,[48],70%
same,Activity,[49],100%
same,Activity,[50],100%
same,Activity,[51],20%
same,TCID50,[52],3.5 mL⁻¹
same,TCID50,[53],3.5 mL⁻¹
same,TCID50,[54],3.5 mL⁻¹
same,TCID50,[55],4.23 mL⁻¹
same,TCID50,[56],3.67 mL⁻¹
same,TCID50,[57],3.5 mL⁻¹
